Assays:
Assay in all cases: Reaction Biology HotSpot kinase assay
Format in all cases: biochemical
[1] = biological target: MEKK1 (Homo sapiens (Human), UniProt Q13233); settings: 500 nM compound; for inhibition at 0.5 µM: read-out: Percentage kinase inhibition MEKK1
Summary of the method: (§1)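 Compounds were screened at one concentration, 500 nM, in a radiometric kinase reaction. After a 20-minute preincubation with enzyme and substrate in pH 7.5 HEPES buffer (1% DMSO), the mixture received 100 μM ATP containing [γ-33P]ATP and was left 2 h at room temperature.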

[2] = biological target: CDK4/cyclin D1 (Homo sapiens (Human), UniProt P11802); settings: 500 nM compound; for inhibition at 0.5 µM: read-out: Percentage kinase inhibition CDK4/cyclin D1
Chain of CDK4/cyclin D1 (P11802 whole entry): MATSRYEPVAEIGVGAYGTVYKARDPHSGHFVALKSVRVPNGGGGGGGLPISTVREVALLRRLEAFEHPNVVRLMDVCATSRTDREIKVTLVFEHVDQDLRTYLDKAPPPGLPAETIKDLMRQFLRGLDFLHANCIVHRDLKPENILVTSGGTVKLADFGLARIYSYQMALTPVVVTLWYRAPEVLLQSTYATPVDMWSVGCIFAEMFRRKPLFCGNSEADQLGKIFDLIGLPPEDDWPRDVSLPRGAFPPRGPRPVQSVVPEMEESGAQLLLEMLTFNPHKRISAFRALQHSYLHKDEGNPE
Chain of CDK4/cyclin D1 (P24385 whole entry partner): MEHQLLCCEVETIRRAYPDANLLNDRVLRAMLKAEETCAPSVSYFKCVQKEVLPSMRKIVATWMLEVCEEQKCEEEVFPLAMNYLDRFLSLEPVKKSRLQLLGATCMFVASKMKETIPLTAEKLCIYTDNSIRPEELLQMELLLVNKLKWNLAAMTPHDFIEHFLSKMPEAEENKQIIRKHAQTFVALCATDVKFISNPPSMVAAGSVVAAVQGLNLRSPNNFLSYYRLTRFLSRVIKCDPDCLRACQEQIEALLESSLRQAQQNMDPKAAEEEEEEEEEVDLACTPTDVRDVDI
Summary of the method: (§2)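 Phosphotransfer from [γ-33P]ATP was quantified after filter binding on P81 paper. Conditions: 20 mM HEPES pH 7.5, 10 mM MgCl2, 0.1 mM Na3VO4, 2 mM DTT, 0.02 mg/mL BSA; ATP 100 μM final; 2 h at room temperature. Compound was dosed at 500 nM.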

[3] = test system: RAF1; settings: 500 nM compound
Summary of the method: as §1

[4] = biological target: MELK (Homo sapiens (Human), UniProt Q14680); settings: 500 nM compound; for inhibition at 0.5 µM: read-out: Percentage kinase inhibition MELK
Summary of the method: as §1

[5] = biological target: LRRK2 (Homo sapiens (Human), UniProt Q5S007); settings: 500 nM compound; for inhibition at 0.5 µM: read-out: Percentage kinase inhibition LRRK2
Summary of the method: as §1

[6] = biological target: ERBB4/HER4 (Homo sapiens (Human), UniProt Q15303); settings: 500 nM compound; for inhibition at 0.5 µM: read-out: Percentage kinase inhibition ERBB4/HER4
Summary of the method: as §1

[7] = biological target: c-Src (Homo sapiens (Human), UniProt P12931); settings: 500 nM compound; for inhibition at 0.5 µM: read-out: Percentage kinase inhibition c-Src
Summary of the method: as §1

[8] = biological target: PIM1 (Homo sapiens (Human), UniProt P11309); settings: 500 nM compound; for inhibition at 0.5 µM: read-out: Percentage kinase inhibition PIM1
Summary of the method: as §1

[9] = biological target: BRK (Homo sapiens (Human), UniProt Q13882); settings: 500 nM compound; for inhibition at 0.5 µM: read-out: Percentage kinase inhibition BRK
Summary of the method: as §2

[10] = biological target: FER (Homo sapiens (Human), UniProt P16591); settings: 500 nM compound; for inhibition at 0.5 µM: read-out: Percentage kinase inhibition FER
Summary of the method: as §1

[11] = biological target: MKK7 (Homo sapiens (Human), UniProt O14733); settings: 500 nM compound; for inhibition at 0.5 µM: read-out: Percentage kinase inhibition MKK7
Summary of the method: as §1

[12] = biological target: TYK2 (Homo sapiens (Human), UniProt P29597); settings: 500 nM compound; for inhibition at 0.5 µM: read-out: Percentage kinase inhibition TYK2
Summary of the method: as §1

[13] = biological target: c-kit (Homo sapiens (Human), UniProt P10721); settings: 500 nM compound, 100 μM radiolabeled ATP
Summary of the method: as §2

[14] = biological target: RON/MST1R (Homo sapiens (Human), UniProt Q04912); settings: 500 nM compound; for inhibition at 0.5 µM: read-out: Percentage kinase inhibition RON/MST1R
Summary of the method: as §1

[15] = biological target: FYN (Homo sapiens (Human), UniProt P06241); settings: 500 nM compound; for inhibition at 0.5 µM: read-out: Percentage kinase inhibition FYN
Summary of the method: as §1

[16] = biological target: LYN (Homo sapiens (Human), UniProt P07948); settings: 500 nM compound; for inhibition at 0.5 µM: read-out: Percentage kinase inhibition LYN
Chain of LYN (P07948 whole entry): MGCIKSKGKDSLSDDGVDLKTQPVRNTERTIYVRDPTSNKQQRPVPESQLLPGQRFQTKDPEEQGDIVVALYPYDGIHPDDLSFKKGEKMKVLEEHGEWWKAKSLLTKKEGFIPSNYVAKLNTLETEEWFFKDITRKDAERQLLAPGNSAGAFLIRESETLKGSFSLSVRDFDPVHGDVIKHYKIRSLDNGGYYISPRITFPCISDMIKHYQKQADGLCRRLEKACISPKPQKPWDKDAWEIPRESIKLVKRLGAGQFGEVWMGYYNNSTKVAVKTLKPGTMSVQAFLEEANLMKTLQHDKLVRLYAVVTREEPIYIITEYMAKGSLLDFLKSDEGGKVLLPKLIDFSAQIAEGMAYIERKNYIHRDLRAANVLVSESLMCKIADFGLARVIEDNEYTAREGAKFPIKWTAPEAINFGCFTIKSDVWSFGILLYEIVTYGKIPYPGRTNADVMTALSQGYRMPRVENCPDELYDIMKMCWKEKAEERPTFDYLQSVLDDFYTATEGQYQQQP
Summary of the method: as §1

[17] = biological target: JAK2 (Homo sapiens (Human), UniProt O60674); settings: 500 nM compound; for inhibition at 0.5 µM: read-out: Percentage kinase inhibition JAK2
Summary of the method: as §1

[18] = biological target: TAOK1 (Homo sapiens (Human), UniProt Q7L7X3); settings: 500 nM compound; for inhibition at 0.5 µM: read-out: Percentage kinase inhibition TAOK1
Summary of the method: as §1

[19] = biological target: CDK2/cyclin A (Homo sapiens (Human), UniProt P24941); settings: 500 nM compound; for inhibition at 0.5 µM: read-out: Percentage kinase inhibition CDK2/cyclin A
Summary of the method: as §2

[20] = biological target: ZAP70 (Homo sapiens (Human), UniProt P43403); settings: 500 nM compound; for inhibition at 0.5 µM: read-out: Percentage kinase inhibition ZAP70
Chain of ZAP70 (P43403 whole entry): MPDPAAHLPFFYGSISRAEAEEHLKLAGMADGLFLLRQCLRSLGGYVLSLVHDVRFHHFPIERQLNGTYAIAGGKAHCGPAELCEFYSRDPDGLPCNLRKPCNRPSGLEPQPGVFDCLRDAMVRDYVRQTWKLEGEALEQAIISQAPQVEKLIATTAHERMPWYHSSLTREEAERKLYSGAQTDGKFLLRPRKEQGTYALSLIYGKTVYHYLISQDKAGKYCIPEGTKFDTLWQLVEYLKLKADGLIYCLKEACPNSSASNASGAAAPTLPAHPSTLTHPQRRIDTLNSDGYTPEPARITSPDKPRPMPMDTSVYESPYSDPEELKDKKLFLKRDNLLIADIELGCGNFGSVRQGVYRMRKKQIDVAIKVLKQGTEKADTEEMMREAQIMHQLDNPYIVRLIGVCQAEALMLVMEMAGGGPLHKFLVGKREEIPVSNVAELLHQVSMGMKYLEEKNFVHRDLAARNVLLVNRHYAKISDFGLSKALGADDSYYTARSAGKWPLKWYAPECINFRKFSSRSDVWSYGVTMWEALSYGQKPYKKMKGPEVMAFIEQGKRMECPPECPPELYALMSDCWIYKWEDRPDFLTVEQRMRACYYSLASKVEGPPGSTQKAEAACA
Summary of the method: as §1

[21] = biological target: KSR1 (Homo sapiens (Human), UniProt Q8IVT5); settings: 500 nM compound; for inhibition at 0.5 µM: read-out: Percentage kinase inhibition KSR1
Chain of KSR1 (Q8IVT5 whole entry): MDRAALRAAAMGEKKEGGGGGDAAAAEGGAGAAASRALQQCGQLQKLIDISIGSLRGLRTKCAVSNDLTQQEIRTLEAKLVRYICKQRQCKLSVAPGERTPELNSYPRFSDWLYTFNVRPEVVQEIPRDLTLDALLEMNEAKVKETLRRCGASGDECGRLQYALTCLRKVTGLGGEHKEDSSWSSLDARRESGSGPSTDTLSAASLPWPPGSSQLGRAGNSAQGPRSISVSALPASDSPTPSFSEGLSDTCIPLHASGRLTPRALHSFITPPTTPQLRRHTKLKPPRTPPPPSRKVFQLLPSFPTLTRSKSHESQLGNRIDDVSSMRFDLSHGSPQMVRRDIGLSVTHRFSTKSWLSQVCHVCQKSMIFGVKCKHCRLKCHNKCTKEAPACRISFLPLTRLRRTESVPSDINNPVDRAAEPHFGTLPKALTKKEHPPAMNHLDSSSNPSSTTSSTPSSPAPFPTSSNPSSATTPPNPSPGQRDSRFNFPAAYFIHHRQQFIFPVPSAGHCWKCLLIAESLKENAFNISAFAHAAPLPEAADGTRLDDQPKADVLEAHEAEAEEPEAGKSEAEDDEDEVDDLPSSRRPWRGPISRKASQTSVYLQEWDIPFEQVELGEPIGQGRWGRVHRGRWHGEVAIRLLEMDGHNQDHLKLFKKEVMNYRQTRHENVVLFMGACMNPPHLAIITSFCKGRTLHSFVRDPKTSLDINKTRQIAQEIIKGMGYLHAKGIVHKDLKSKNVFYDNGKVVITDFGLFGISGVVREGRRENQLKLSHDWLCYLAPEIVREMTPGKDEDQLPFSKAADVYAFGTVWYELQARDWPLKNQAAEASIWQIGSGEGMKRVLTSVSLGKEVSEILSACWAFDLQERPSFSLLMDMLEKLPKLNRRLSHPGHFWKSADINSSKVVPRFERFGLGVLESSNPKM
Summary of the method: as §1

[22] = biological target: PKD2/PRKD2 (Homo sapiens (Human), UniProt Q9BZL6); settings: 500 nM compound; for inhibition at 0.5 µM: read-out: Percentage kinase inhibition PKD2/PRKD2
Chain of PKD2/PRKD2 (Q9BZL6 whole entry): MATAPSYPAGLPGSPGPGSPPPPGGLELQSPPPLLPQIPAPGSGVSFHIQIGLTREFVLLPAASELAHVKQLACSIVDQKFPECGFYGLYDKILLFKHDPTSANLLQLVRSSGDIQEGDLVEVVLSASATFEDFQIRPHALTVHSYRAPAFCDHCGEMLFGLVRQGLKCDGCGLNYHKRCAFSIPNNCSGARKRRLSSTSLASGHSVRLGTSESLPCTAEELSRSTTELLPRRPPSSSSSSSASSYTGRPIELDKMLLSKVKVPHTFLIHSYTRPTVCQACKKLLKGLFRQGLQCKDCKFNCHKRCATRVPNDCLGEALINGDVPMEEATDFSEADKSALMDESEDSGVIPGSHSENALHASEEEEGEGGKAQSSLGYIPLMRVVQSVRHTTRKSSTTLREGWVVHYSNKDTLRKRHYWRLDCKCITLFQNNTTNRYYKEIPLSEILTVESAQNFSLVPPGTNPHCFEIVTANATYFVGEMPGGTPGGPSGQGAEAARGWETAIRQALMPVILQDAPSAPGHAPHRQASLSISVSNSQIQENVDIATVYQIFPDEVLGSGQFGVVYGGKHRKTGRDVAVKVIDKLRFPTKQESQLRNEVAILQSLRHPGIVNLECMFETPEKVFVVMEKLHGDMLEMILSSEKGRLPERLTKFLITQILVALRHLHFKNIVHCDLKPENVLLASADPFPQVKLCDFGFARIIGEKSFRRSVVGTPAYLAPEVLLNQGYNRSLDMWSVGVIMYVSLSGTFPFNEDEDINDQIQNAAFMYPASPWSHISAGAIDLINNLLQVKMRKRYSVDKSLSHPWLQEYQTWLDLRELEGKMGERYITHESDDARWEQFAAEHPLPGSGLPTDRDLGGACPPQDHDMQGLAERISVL
Summary of the method: as §1

[23] = biological target: ERK1 (Homo sapiens (Human), UniProt P27361); settings: 500 nM compound; for inhibition at 0.5 µM: read-out: Percentage kinase inhibition ERK1
Summary of the method: as §1

[24] = biological target: IGF1R (Homo sapiens (Human), UniProt P08069); settings: 500 nM compound; for inhibition at 0.5 µM: read-out: Percentage kinase inhibition IGF1R
Summary of the method: as §1

[25] = biological target: PDK1/PDHK1 (Homo sapiens (Human), UniProt Q15118); settings: 500 nM compound; for inhibition at 0.5 µM: read-out: Percentage kinase inhibition PDK1/PDHK1
Summary of the method: as §1

[26] = biological target: MUSK (Homo sapiens (Human), UniProt O15146); settings: 500 nM compound; for inhibition at 0.5 µM: read-out: Percentage kinase inhibition MUSK
Summary of the method: as §1

[27] = biological target: RSK2 (Homo sapiens (Human), UniProt P51812); settings: 500 nM compound; for inhibition at 0.5 µM: read-out: Percentage kinase inhibition RSK2
Summary of the method: as §1

[28] = biological target: DDR2 (Homo sapiens (Human), UniProt Q16832); settings: 500 nM compound; for inhibition at 0.5 µM: read-out: Percentage kinase inhibition DDR2
Summary of the method: as §1

[29] = biological target: PAK1 (Homo sapiens (Human), UniProt Q13153); settings: 500 nM compound; for inhibition at 0.5 µM: read-out: Percentage kinase inhibition PAK1
Summary of the method: as §1

[30] = biological target: SYK (Homo sapiens (Human), UniProt P43405); settings: 500 nM compound; for inhibition at 0.5 µM: read-out: Percentage kinase inhibition SYK
Summary of the method: as §1

[31] = biological target: CTK/MATK (Homo sapiens (Human), UniProt P42679); settings: 500 nM compound; for inhibition at 0.5 µM: read-out: Percentage kinase inhibition CTK/MATK
Summary of the method: as §1

Chain of MEKK1 (Q13233 whole entry): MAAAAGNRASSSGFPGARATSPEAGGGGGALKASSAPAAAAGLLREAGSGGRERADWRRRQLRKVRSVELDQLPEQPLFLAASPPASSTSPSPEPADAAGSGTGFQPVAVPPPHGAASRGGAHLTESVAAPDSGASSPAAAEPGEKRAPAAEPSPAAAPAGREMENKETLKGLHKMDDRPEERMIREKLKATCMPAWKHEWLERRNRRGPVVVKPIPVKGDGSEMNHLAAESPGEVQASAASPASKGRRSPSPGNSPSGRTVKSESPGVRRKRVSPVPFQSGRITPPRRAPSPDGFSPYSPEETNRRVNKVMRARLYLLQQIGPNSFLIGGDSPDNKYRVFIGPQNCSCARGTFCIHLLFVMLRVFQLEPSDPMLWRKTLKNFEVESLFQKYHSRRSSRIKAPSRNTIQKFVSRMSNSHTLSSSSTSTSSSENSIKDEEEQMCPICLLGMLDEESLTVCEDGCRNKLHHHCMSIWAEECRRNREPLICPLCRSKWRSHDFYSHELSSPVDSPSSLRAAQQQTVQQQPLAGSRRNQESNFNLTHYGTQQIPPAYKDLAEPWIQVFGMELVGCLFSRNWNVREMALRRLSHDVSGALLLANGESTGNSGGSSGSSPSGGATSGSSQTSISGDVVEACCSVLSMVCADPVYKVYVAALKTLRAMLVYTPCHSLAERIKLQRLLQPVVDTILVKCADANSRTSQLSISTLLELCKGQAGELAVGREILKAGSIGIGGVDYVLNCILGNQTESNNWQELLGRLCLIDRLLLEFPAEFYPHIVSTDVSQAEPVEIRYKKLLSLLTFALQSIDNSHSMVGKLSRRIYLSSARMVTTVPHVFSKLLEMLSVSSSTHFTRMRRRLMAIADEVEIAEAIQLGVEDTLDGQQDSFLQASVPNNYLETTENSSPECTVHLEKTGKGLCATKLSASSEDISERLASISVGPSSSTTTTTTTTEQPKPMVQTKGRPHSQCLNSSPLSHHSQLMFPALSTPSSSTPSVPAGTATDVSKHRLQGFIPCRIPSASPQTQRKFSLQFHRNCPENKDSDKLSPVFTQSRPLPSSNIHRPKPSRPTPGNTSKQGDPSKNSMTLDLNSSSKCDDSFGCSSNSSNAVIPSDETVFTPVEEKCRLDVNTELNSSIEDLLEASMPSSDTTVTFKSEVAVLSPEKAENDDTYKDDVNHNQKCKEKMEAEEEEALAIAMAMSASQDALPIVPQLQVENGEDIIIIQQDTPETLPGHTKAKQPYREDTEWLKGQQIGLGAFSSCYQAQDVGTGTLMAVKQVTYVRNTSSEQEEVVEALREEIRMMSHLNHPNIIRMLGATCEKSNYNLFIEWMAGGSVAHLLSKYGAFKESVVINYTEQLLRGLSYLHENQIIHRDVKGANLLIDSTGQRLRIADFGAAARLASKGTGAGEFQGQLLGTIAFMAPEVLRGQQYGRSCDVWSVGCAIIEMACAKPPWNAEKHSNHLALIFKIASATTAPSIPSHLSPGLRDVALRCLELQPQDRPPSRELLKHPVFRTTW

With CN(C)CC(O)CNC(=O)c1ccc(C#Cc2c(N)ncc3ccc(Cl)cc23)cc1 (stereo not shown) [HSM1702] the “Percentage kinase inhibition MEKK1” value [1] was 4%, the “Percentage kinase inhibition CDK4/cyclin D1” value [2] was 16% and the “Percentage kinase inhibition RAF1” value [3] was 5%. The “Percentage kinase inhibition MELK” value [4] was 12%, the “Percentage kinase inhibition LRRK2” value [5] was 40% and the “Percentage kinase inhibition ERBB4/HER4” value [6] was 0%. For the same compound, the “Percentage kinase inhibition c-Src” value [7] was 9%, the “Percentage kinase inhibition PIM1” value [8] was 34% and the “Percentage kinase inhibition BRK” value [9] was 18%. The “Percentage kinase inhibition FER” value [10] was 0%, the “Percentage kinase inhibition MKK7” value [11] was 0% and the “Percentage kinase inhibition TYK2” value [12] was 2%. For the same compound, the “% inhibition of c-Kit” value [13] was 83%, the “Percentage kinase inhibition RON/MST1R” value [14] was 0% and the “Percentage kinase inhibition FYN” value [15] was 16%. For the same compound, the “Percentage kinase inhibition LYN” value [16] was 6%, the “Percentage kinase inhibition JAK2” value [17] was 0% and the “Percentage kinase inhibition TAOK1” value [18] was 12%. The “Percentage kinase inhibition CDK2/cyclin A” value [19] was 18%, the “Percentage kinase inhibition ZAP70” value [20] was 0% and the “Percentage kinase inhibition KSR1” value [21] was 0%. The “Percentage kinase inhibition PKD2/PRKD2” value [22] was 6%, the “Percentage kinase inhibition ERK1” value [23] was 5% and the “Percentage kinase inhibition IGF1R” value [24] was 3%. For the same compound, the “Percentage kinase inhibition PDK1/PDHK1” value [25] was 0%, the “Percentage kinase inhibition MUSK” value [26] was 35% and the “Percentage kinase inhibition RSK2” value [27] was 7%. The “Percentage kinase inhibition DDR2” value [28] was 0%, the “Percentage kinase inhibition PAK1” value [29] was 1% and the “Percentage kinase inhibition SYK” value [30] was 4%. The “Percentage kinase inhibition CTK/MATK” value [31] was 0%.
For Cc1ccc(C(=O)Nc2ccc(CN3CCN(C)CC3)c(C(F)(F)F)c2)cc1C#Cc1cc(N)nc2ccccc12 [HSN285], the “Percentage kinase inhibition RAF1” value [3] was 90%, the inhibition at 0.5 µM [7] was 0% and the inhibition at 0.5 µM [13] was 31%.
For Cc1ccc(C(=O)Nc2ccc(CN3CCN(C)CC3)c(C(F)(F)F)c2)cc1C#Cc1c(N)ncc2ccc(Cl)cc12 [HSN286], the inhibition at 0.5 µM [1] was 6%, the inhibition at 0.5 µM [2] was 0% and the “Percentage kinase inhibition RAF1” value [3] was 94%. For the same compound, the inhibition at 0.5 µM [4] was 27%, the inhibition at 0.5 µM [5] was 6% and the inhibition at 0.5 µM [6] was 71%. The inhibition at 0.5 µM [8] was 0%, the inhibition at 0.5 µM [9] was 92% and the inhibition at 0.5 µM [10] was 0%. It also gave an inhibition at 0.5 µM [11] of 0%, an inhibition at 0.5 µM [12] of 0% and an inhibition at 0.5 µM [13] of 61%. It also gave an inhibition at 0.5 µM [14] of 0%, an inhibition at 0.5 µM [15] of 100% and an inhibition at 0.5 µM [16] of 98%. It also gave an inhibition at 0.5 µM [17] of 67%, an inhibition at 0.5 µM [18] of 0% and an inhibition at 0.5 µM [19] of 0%. For the same compound, the inhibition at 0.5 µM [20] was 0%, the inhibition at 0.5 µM [21] was 0% and the inhibition at 0.5 µM [22] was 7%. The inhibition at 0.5 µM [23] was 0%, the inhibition at 0.5 µM [24] was 0% and the inhibition at 0.5 µM [25] was 0%. For the same compound, the inhibition at 0.5 µM [26] was 13%, the inhibition at 0.5 µM [27] was 0% and the inhibition at 0.5 µM [28] was 77%. It also gave an inhibition at 0.5 µM [29] of 0%, an inhibition at 0.5 µM [30] of 0% and an inhibition at 0.5 µM [31] of 0%.
Compound COc1cc2nc(N)nc(C#Cc3cc(C(=O)Nc4ccc(CN5CCN(C)CC5)c(C(F)(F)F)c4)ccc3C)c2cc1OC [HSN325] has an inhibition at 0.5 µM [1] of 4%, an inhibition at 0.5 µM [2] of 0% and an inhibition at 0.5 µM [4] of 0%. The inhibition at 0.5 µM [5] was 0%, the inhibition at 0.5 µM [6] was 7% and the inhibition at 0.5 µM [7] was 30%. For the same compound, the inhibition at 0.5 µM [8] was 0%, the inhibition at 0.5 µM [9] was 0% and the inhibition at 0.5 µM [10] was 12%. It also gave an inhibition at 0.5 µM [11] of 6%, an inhibition at 0.5 µM [12] of 0% and an inhibition at 0.5 µM [14] of 0%. It also gave an inhibition at 0.5 µM [15] of 10%, an inhibition at 0.5 µM [16] of 69% and an inhibition at 0.5 µM [17] of 0%. For the same compound, the inhibition at 0.5 µM [18] was 0%, the inhibition at 0.5 µM [19] was 0% and the inhibition at 0.5 µM [20] was 0%. The inhibition at 0.5 µM [21] was 0%, the inhibition at 0.5 µM [22] was 0% and the inhibition at 0.5 µM [23] was 0%. The inhibition at 0.5 µM [24] was 0%, the inhibition at 0.5 µM [25] was 1% and the inhibition at 0.5 µM [26] was 0%. It also gave an inhibition at 0.5 µM [27] of 0%, an inhibition at 0.5 µM [28] of 81% and an inhibition at 0.5 µM [29] of 0%. For the same compound, the inhibition at 0.5 µM [30] was 0% and the inhibition at 0.5 µM [31] was 5%.
For Cc1ccc(C(=O)Nc2ccc(CN3CCN(C)CC3)c(C(F)(F)F)c2)cc1C#Cc1cnc(N)c2ccccc12 [HSN334, 3-((1-aminoisoquinolin-4-yl)ethynyl)-4-methyl-N-(4-((4-methylpiperazin-1-yl)methyl)-3-(trifluoromethyl)phenyl)benzamide], the “Percentage kinase inhibition RAF1” value [3] was 96% and the inhibition at 0.5 µM [13] was 73%.
For Cc1ccc(C(=O)Nc2ccc(CN3CCN(C)CC3)c(C(F)(F)F)c2)cc1C#Cc1cnc(N)c2ncccc12 [HSN356, 3-((8-amino-1,7-naphthyridin-5-yl)ethynyl)-4-methyl-N-(4-((4-methylpiperazin-1-yl)methyl)-3-(trifluoromethyl)phenyl)benzamide], the “Percentage kinase inhibition RAF1” value [3] was 100% and the inhibition at 0.5 µM [13] was 87%.

Reference: patent US20250084039A1, “4-SUBSTITUTED AMINOISOQUINOLINE DERIVATIVES” (Purdue Research Foundation, priority 2016, published 2025)
